Reference: US20140088006A1, “Stem Cell Mobilization and Tissue Repair and Regeneration” (Wellstat Therapeutics Corporation, priority 2011, published 2014)
Several values for one entry are separate records, joined by “and”; a condition that tells them apart may be missing. Identical values can stand only once. No end group written: not given here.

Tests used:
[1] = Blood glucose before and 7 weeks after treatment in wound healing study; type: in vivo, db/db mice; conditions: 4 days i.v. treatment course; 7 weeks after the treatment
Procedure: Note, that mice were taken for the wound healing experiment when their glucose level was high; baseline glucose was measured by glucometer from tail bleed one day before the wound healing experiment next glucose measurement was taken at the end of the study, 7 weeks after the treatment with intravenous injections of Compound X or Saline.

[2] = test system: white blood cells in peripheral blood; experiment: White blood cell count in peripheral blood after single subcutaneous injection; type: in vivo, C57Bl6 mice; conditions: for White Blood Cell counts: Cell Count: individual mice
Procedure: C57Bl6 male mice, from 8 weeks to 4 month of age, from Harlan were used. Mice received subcutaneous injections of saline, Compound X (50 μg/kg) or Compound X (250 μg/kg). After 1 and 4 hours, mice were anesthetized and blood was collected through the orbital sinus with heparinized capillary tubes. 20 μl of blood was removed from each tube for WBC counts;
In this experiment, C57Bl6 mice received subcutaneous injections of PBS, Compound X (250 μg/kg) or AMD3100 (5 mg/kg). After 1 hr blood was collected through the orbital sinus with heparinized capillary tubes. Blood from each group was pooled, counted and mononuclear cells were isolated by density gradient separation. Cells were washed, counted and plated at 100,000 per dish (5 dishes/group) for CFU-GEMM and CFU-GM colonies. CFU-GEMM colonies were scored on day 14, while CFU-GM colonies on day 7 after plating in MC3434 (Stem cell Technology).

[3] = test system: white blood cells in peripheral blood; experiment: White blood cell number after 4 daily subcutaneous injections; type: in vivo, C57Bl/6 male mice; set-up: White blood cell number in peripheral blood: unit not given here; conditions: for White blood cell number in peripheral blood: 1 hr after injection
Procedure: This example is based on a protocol for a 4-day course of once-daily Compound X injections into C57Bl/6 male mice similar to G-CSF. Two effective dose levels of Compound X were found previously to mobilize HSC 1 hr after single injection and were selected for this experiment. Four-month old C57Bl/6 male mice (Jackson Laboratories) were subcutaneously injected with 0.9% saline, 125 μg/kg Compound X or 250 μg/kg Compound X on days 1, 2, 3 and 4 as described in Table 4. Each day, one-hour post injections, peripheral blood from 3 mice per group was harvested from the orbital plexus into EDTA-containing tubes. On day 4, a femur and spleen were also removed from mice to assess by FACS whether any toxicity aroused from repeated injections of Compound X.
As in the previous example to determine mobilization of colony-forming cells out of the bone marrow, mononuclear cells from peripheral blood were plated into MethoCult 3434 media (Stem Cell Technologies). Briefly, after white blood cell counting, the remaining peripheral blood was diluted (1:1, v/v) with 0.9% saline (APP Pharmaceutical) and layered (2:1, v/v) onto 1-Step™1.077 A (Accurate Chemicals) in 15-ml centrifuge tubes. Cells were centrifuged at 600×g for 20 min at room temperature. The mononuclear cells were harvested from the interface between the plasma layer and the 1-Step™ A solution using a 1-ml syringe and blunt-end needle. The cells were transferred to 15-ml centrifuge tubes and washed twice in 1×PBS. Cells were resuspended in 1 ml of IMDM and cell counts were obtained using the Coulter counter. Cells were placed into 35-mm Petri dishes at 200,000 cells per dish with 5 dishes per group. Cells incubated for 10 days in a 37° C. and 5% CO2 humidified incubator. CFU colonies were then scored using an inverted microscope—CFU-GM detected on day 7 and CFU-GEMM—on day 10. Data presented in Tables 7, 8 and 9, FIGS. 3 and 4.

[4] = test system: full-thickness cutaneous wounds; experiment: Excisional wound healing model in db/db mice; type: in vivo; conditions: i.v. 5 mg/kg daily for 4 days, Day 4
peripheral blood cells = experiment: FACS phenotype of peripheral blood cells after single subcutaneous injection; type: in vivo, C57Bl6 mice; conditions: for Phenotype Lin−/Sca-1+ / Phenotype Lin−/Sca-1−: mononuclear cells; for Phenotype CD19+ / Phenotype Gr-1 High / Phenotype Gr-1 Low: individual mice
Procedure: C57Bl6 male mice, from 8 weeks to 4 month of age, from Harlan were used. […] 20 μl of blood was removed from each tube for WBC counts;
200 μl of blood was used for FACS analysis of cells phenotypes: briefly 50 μl of blood was transferred to a 15 ml polypropylene tube containing 1 ml ACK lysis buffer and the tubes left at room temperature for 6 minutes. 50 μl of a 1:50 dilution of Fc block (Pharmingen 01241A) along with 2 ul of anti-CD19FITC (Pharmingen 09654A) and 2 μl of anti-Gr-1PE (Pharmingen 01215A) was added and the tubes left at room temperature for 30 minutes protected from light. The cells were washed with 3 ml FACS buffer, resuspended in 300 μl FACS buffer and kept on ice, protected from light until acquired on the FACSCalibur.
For flow cytometry analysis the blood was stained with antibodies and a phenotype determined by FACS as described before. In addition to the whole blood FACS phenotyping, Ficolled blood was also stained to monitor the Lin−/Sca+ phenotype. The cells were washed with 3 ml FACS buffer, resuspended in 300 μl FACS buffer and kept on ice, protected from light until acquired on the FACSCalibur

## FPHFDLSHGSAQV [Compound X, tridecapeptide that acts on stem cells]
[1]
  glucose level in blood: decreased glucose level
[2]; s.c. 250 μg/kg, 1 hr, pooled blood
  White blood cell count: Cell Count: 7.2e+06 mL⁻¹
[2]; single s.c. 50 μg/kg, 1 hour
  White Blood Cell counts: Cell Count: 1.41e+07 mL⁻¹ and 7.8e+06 mL⁻¹ and 9.6e+06 mL⁻¹
[2]; single s.c. 50 μg/kg, 4 hours
  White Blood Cell counts: Cell Count: 2.22e+07 mL⁻¹ and 6.9e+06 mL⁻¹ and 1e+07 mL⁻¹
[2]; single s.c. 250 μg/kg, 1 hour
  White Blood Cell counts: Cell Count: 9.6e+06 mL⁻¹ and 9.2e+06 mL⁻¹ and 1.79e+07 mL⁻¹
[2]; single s.c. 250 μg/kg, 4 hours
  White Blood Cell counts: Cell Count: 1.67e+07 mL⁻¹ and 1.46e+07 mL⁻¹ and 1.03e+07 mL⁻¹
[2]; single s.c. 50 or 250 μg/kg
  egress of cells from bone marrow into peripheral blood (white blood cell count): did not cause massive egress of cells
[3]; 125 μg/kg s.c. daily, Day 1
  White blood cell number in peripheral blood: 7.4
[3]; 125 μg/kg s.c. daily, Day 2
  White blood cell number in peripheral blood: 8.8
[3]; 125 μg/kg s.c. daily, Day 3
  White blood cell number in peripheral blood: 6.0
[3]; 125 μg/kg s.c. daily, Day 4
  White blood cell number in peripheral blood: 8.6
[3]; 250 μg/kg s.c. daily, Day 1
  White blood cell number in peripheral blood: 8.6
[3]; 250 μg/kg s.c. daily, Day 2
  White blood cell number in peripheral blood: 8.2
[3]; 250 μg/kg s.c. daily, Day 3
  White blood cell number in peripheral blood: 10.2
[3]; 250 μg/kg s.c. daily, Day 4
  White blood cell number in peripheral blood: 9.2
[3]; multiple daily injections, 125 and 250 μg/kg
  White blood cell number: did not change
[4]
  Wound healing rate, Average: 5.14%
[4]; individual mice, 5 mg/kg
  Wound healing rate: 3.89% and 4.69% and 2.42% and 8.09% and 6.62%
Peripheral blood cells; 50 μg/kg, 1-hour
  Phenotype Lin−/Sca-1+: 0.4%
  Phenotype Lin−/Sca-1−: 0.8%
Peripheral blood cells; 50 μg/kg, 30-min
  Phenotype Lin−/Sca-1+: 0.5%
  Phenotype Lin−/Sca-1−: 1.0%
Peripheral blood cells; 250 μg/kg, 1-hour
  Phenotype Lin−/Sca-1+: 0.8%
  Phenotype Lin−/Sca-1−: 1.1%
Peripheral blood cells; 250 μg/kg, 30-min
  Phenotype Lin−/Sca-1+: 0.6%
  Phenotype Lin−/Sca-1−: 1.1%
Peripheral blood cells; s.c. 50 μg/kg, 1 hr
  Phenotype CD19+: 38.3% and 41.0% and 29.6%
  Phenotype Gr-1 High: 26.0% and 27.7% and 29.4%
  Phenotype Gr-1 Low: 3.5% (2×) and 7.0%
Peripheral blood cells; s.c. 50 μg/kg, 4 hr
  Phenotype CD19+: 33.9% and 40.9% and 29.1%
  Phenotype Gr-1 High: 25.0% and 16.7% and 29.1%
  Phenotype Gr-1 Low: 6.2% and 7.6% and 5.3%
Peripheral blood cells; s.c. 250 μg/kg, 1 hr
  Phenotype CD19+: 14.8% and 4.8% and 14.5%
  Phenotype Gr-1 High: 55.2% and 18.7% and 6.8%
  Phenotype Gr-1 Low: 3.5% and 2.1% and 2.4%
Peripheral blood cells; s.c. 250 μg/kg, 4 hr
  Phenotype CD19+: 46.7% and 48.5% and 46.6%
  Phenotype Gr-1 High: 16.1% and 12.9% and 11.7%
  Phenotype Gr-1 Low: 5.1% and 5.5% and 6.6%
Peripheral blood cells; s.c. 50 or 250 μg/kg, 30 min and 1 hr
  mobilization of lineage negative progenitors: did not have such an effect
